System: MV-4-11 cells
Assay: Gene expression microarray analysis (Affymetrix PrimeView) and GSEA
Type: cell-based, human
Set-up: RFU PODN (11730768_x_at) / Fold change /veh PODN (11730768_x_at) / RFU LINC00158 (11744669_a_at) / Fold change /veh LINC00158 (11744669_a_at) / RFU DUSP10 (11751237_a_at) / Fold change /veh DUSP10 (11751237_a_at) / RFU ID3 (11757404_x_at) / Fold change /veh ID3 (11757404_x_at) / RFU PLEKHG5 (11737974_s_at) / Fold change /veh PLEKHG5 (11737974_s_at) / RFU LRRC4B (11730491_at) / Fold change /veh LRRC4B (11730491_at) / RFU GIMAP4 (11747438_a_at) / Fold change /veh GIMAP4 (11747438_a_at) / RFU KRT8 (11758183_x_at) / Fold change /veh KRT8 (11758183_x_at) / RFU CNN1 (11734310_a_at) / Fold change /veh CNN1 (11734310_a_at) / RFU VPS37D (11726825_at) / Fold change /veh VPS37D (11726825_at) / RFU C10orf10 (11716522_x_at) / Fold change /veh C10orf10 (11716522_x_at) / RFU KIR2DL2 /// KIR2DL4 /// KIR2DL5A /// KIR2DL5B /// KIR2DS1 /// KIR2DS2 /// KIR2DS3 /// KIR2DS4 /// KIR3DL3 /// KIR3DL3 /// KIR3DS1 (11738374_at) / Fold change /veh KIR2DL2 /// KIR2DL4 /// KIR2DL5A /// KIR2DL5B /// KIR2DS1 /// KIR2DS2 /// KIR2DS3 /// KIR2DS4 /// KIR3DL3 /// KIR3DL3 /// KIR3DS1 (11738374_at) / RFU C1QL1 (11718748_at) / Fold change /veh C1QL1 (11718748_at) / RFU TMPRSS4 (11747572_a_at) / Fold change /veh TMPRSS4 (11747572_a_at) / RFU HAMP (11756126_x_at) / Fold change /veh HAMP (11756126_x_at) / RFU RNFT2 (11725882_a_at) / Fold change /veh RNFT2 (11725882_a_at) / RFU NR4A2 (11747474_a_at) / Fold change /veh NR4A2 (11747474_a_at) / RFU ABCC12 (11746883_a_at) / Fold change /veh ABCC12 (11746883_a_at) / RFU TMEM136 (11760407_x_at) / Fold change /veh TMEM136 (11760407_x_at) / RFU CLDN22 /// WWC2 (11732394_at) / Fold change /veh CLDN22 /// WWC2 (11732394_at) / RFU HLA-DPB1 (11760878_x_at) / Fold change /veh HLA-DPB1 (11760878_x_at) / RFU SPINT1 (11716480_a_at) / Fold change /veh SPINT1 (11716480_a_at) / RFU GAP43 (11754022_s_at) / Fold change /veh GAP43 (11754022_s_at) / RFU A4GNT (11735810_at) / Fold change /veh A4GNT (11735810_at) / RFU PRB3 (11715151_x_at) / Fold change /veh PRB3 (11715151_x_at) / RFU TUBB4B (11761932_at) / Fold change /veh TUBB4B (11761932_at) / RFU CAPN14 (11732068_a_at) / Fold change /veh CAPN14 (11732068_a_at) / RFU TMCC2 (11721928_a_at) / Fold change /veh TMCC2 (11721928_a_at) / RFU IRGQ (11745062_a_at) / Fold change /veh IRGQ (11745062_a_at) / RFU FAM174B (11720279_a_at) / Fold change /veh FAM174B (11720279_a_at) / RFU TMPRSS4 (11748680_a_at) / Fold change /veh TMPRSS4 (11748680_a_at) / RFU FAM212B (11763350_a_at) / Fold change /veh FAM212B (11763350_a_at) / RFU PLEKHG5 (11743358_a_at) / Fold change /veh PLEKHG5 (11743358_a_at) / RFU ZSCAN30 (11745921_a_at) / Fold change /veh ZSCAN30 (11745921_a_at) / RFU CMKLR1 (11741424_a_at) / Fold change /veh CMKLR1 (11741424_a_at) / RFU LOC101060620 /// MAPK8IP1 (11723275_at) / Fold change /veh LOC101060620 /// MAPK8IP1 (11723275_at) / RFU SPTSSB (11747773_x_at) / Fold change /veh SPTSSB (11747773_x_at) / RFU PRSS12 (11739890_at) / Fold change /veh PRSS12 (11739890_at) / RFU BIN1 (11741810_x_at) / Fold change /veh BIN1 (11741810_x_at) / RFU WNT11 (11732464_a_at) / Fold change /veh WNT11 (11732464_a_at) / RFU C10orf10 (11716521_a_at) / Fold change /veh C10orf10 (11716521_a_at) / RFU C5orf56 (11738089_at) / Fold change /veh C5orf56 (11738089_at) / RFU CYB561 (11721691_x_at) / Fold change /veh CYB561 (11721691_x_at) / RFU ANKRD19P (11752326_a_at) / Fold change /veh ANKRD19P (11752326_a_at) / RFU OR2T12 /// OR2T33 /// OR2T8 (11738714_s_at) / Fold change /veh OR2T12 /// OR2T33 /// OR2T8 (11738714_s_at) / RFU VCAN (11748164_a_at) / Fold change /veh VCAN (11748164_a_at) / RFU JSRP1 (11732532_at) / Fold change /veh JSRP1 (11732532_at) / RFU KRTAP10-11 (11738290_x_at) / Fold change /veh KRTAP10-11 (11738290_x_at) / RFU MYO3A (11730013_a_at) / Fold change /veh MYO3A (11730013_a_at) / RFU EBF3 (11725865_a_at) / Fold change /veh EBF3 (11725865_a_at) / RFU CAMK2N1 (11719241_x_at) / Fold change /veh CAMK2N1 (11719241_x_at) / RFU C5orf56 (11738088_a_at) / Fold change /veh C5orf56 (11738088_a_at) / RFU OLFML3 (11715873_a_at) / Fold change /veh OLFML3 (11715873_a_at) / RFU LOC100653217 /// NTM (11731650_a_at) / Fold change /veh LOC100653217 /// NTM (11731650_a_at) / RFU MAPK11 (11762145_a_at) / Fold change /veh MAPK11 (11762145_a_at) / RFU FIZ1 (11724087_x_at) / Fold change /veh FIZ1 (11724087_x_at) / RFU OASL (11726364_x_at) / Fold change /veh OASL (11726364_x_at) / RFU SOX15 (11748057_x_at) / Fold change /veh SOX15 (11748057_x_at) / RFU CD79A (11719716_a_at) / Fold change /veh CD79A (11719716_a_at) / RFU HIST1H1D (11736915_at) / Fold change /veh HIST1H1D (11736915_at) / RFU CASKIN2 (11723855_a_at) / Fold change /veh CASKIN2 (11723855_a_at) / RFU LOC730098 (11760151_x_at) / Fold change /veh LOC730098 (11760151_x_at) / RFU OR4N2 (11742367_at) / Fold change /veh OR4N2 (11742367_at) / RFU PRRT2 (11749266_a_at) / Fold change /veh PRRT2 (11749266_a_at) / RFU SNX32 (11753110_a_at) / Fold change /veh SNX32 (11753110_a_at) / RFU CDHR5 (11726645_a_at) / Fold change /veh CDHR5 (11726645_a_at) / RFU RCAN1 (11760418_a_at) / Fold change /veh RCAN1 (11760418_a_at) / RFU FAM167A (11723789_a_at) / Fold change /veh FAM167A (11723789_a_at) / RFU FAM26E (11764081_at) / Fold change /veh FAM26E (11764081_at) / RFU ISYNA1 (11749810_s_at) / Fold change /veh ISYNA1 (11749810_s_at) / RFU ACY1 (11761880_at) / Fold change /veh ACY1 (11761880_at) / RFU 11764098_at / Fold change /veh 11764098_at / RFU SAMD14 (11745864_x_at) / Fold change /veh SAMD14 (11745864_x_at) / RFU NPB (11741838_a_at) / Fold change /veh NPB (11741838_a_at) / RFU TMPRSS6 (11731388_a_at) / Fold change /veh TMPRSS6 (11731388_a_at) / RFU KRTAP10-2 (11738614_at) / Fold change /veh KRTAP10-2 (11738614_at) / RFU ARHGAP8 /// PRR5-ARHGAP8 (11727945_x_at) / Fold change /veh ARHGAP8 /// PRR5-ARHGAP8 (11727945_x_at) / RFU KRTAP5-7 /// NADSYN1 (11734609_at) / Fold change /veh KRTAP5-7 /// NADSYN1 (11734609_at) / RFU RASL12 (11751679_a_at) / Fold change /veh RASL12 (11751679_a_at) / RFU CDKN2B (11736163_a_at) / Fold change /veh CDKN2B (11736163_a_at) / RFU PRF1 (11729649_at) / Fold change /veh PRF1 (11729649_at) / RFU, ZNF638 /// ZNF638-IT1 / Fold change vs veh, ZNF638 /// ZNF638-IT1 / RFU, PANK3 / Fold change vs veh, PANK3 / RFU, SH3YL1 / Fold change vs veh, SH3YL1 / RFU, ZEB2 / Fold change vs veh, ZEB2 / RFU, NRIP1 / Fold change vs veh, NRIP1 / RFU, PTTG1IP / Fold change vs veh, PTTG1IP / RFU, CAPN2 / Fold change vs veh, CAPN2 / RFU, MED14 / Fold change vs veh, MED14 / RFU, SNORA58 / Fold change vs veh, SNORA58 / RFU, C1orf63 / Fold change vs veh, C1orf63 / RFU, LRRFIP1 / Fold change vs veh, LRRFIP1 / RFU, NDUFAF7 / Fold change vs veh, NDUFAF7 / RFU, SLC12A2 / Fold change vs veh, SLC12A2 / RFU, IBTK / Fold change vs veh, IBTK / RFU, ESF1 / Fold change vs veh, ESF1 / Fold change vs veh, TMEM50B / RFU, TAOK1 / Fold change vs veh, TAOK1 / RFU, ACBD3 / Fold change vs veh, ACBD3 / RFU, TMA16 / Fold change vs veh, TMA16 / RFU, RWDD3 / Fold change vs veh, RWDD3 / RFU, BCAT1 / Fold change vs veh, BCAT1 / RFU, EDEM3 / Fold change vs veh, EDEM3 / RFU, TMEM33 / Fold change vs veh, TMEM33 / RFU, WDR75 / Fold change vs veh, WDR75 / RFU, AHCTF1 / Fold change vs veh, AHCTF1 / RFU, TFRC / Fold change vs veh, TFRC / RFU, ZDHHC17 / Fold change vs veh, ZDHHC17 / RFU, NOM1 / Fold change vs veh, NOM1 / RFU, ARL8B / Fold change vs veh, ARL8B / RFU, ZBTB11 / Fold change vs veh, ZBTB11 / RFU, TAMM41 / Fold change vs veh, TAMM41 / RFU, KIAA1704 /// LOC100996395 / Fold change vs veh, KIAA1704 /// LOC100996395 / RFU, ING1 / Fold change vs veh, ING1 / RFU, TRMT61B / Fold change vs veh, TRMT61B / RFU, FUBP3 / Fold change vs veh, FUBP3 / RFU, TP53 / Fold change vs veh, TP53 / RFU, TNKS2 / Fold change vs veh, TNKS2 / RFU, ZFP14 / Fold change vs veh, ZFP14 / RFU, ACTR2 / Fold change vs veh, ACTR2 / RFU, PPP3R1 / Fold change vs veh, PPP3R1 / RFU, PIK3R1 / Fold change vs veh, PIK3R1 / RFU, HNRNPA1 / Fold change vs veh, HNRNPA1 / RFU, RNF170 / Fold change vs veh, RNF170 / RFU, ZNF28 / Fold change vs veh, ZNF28 / RFU, RNGTT / Fold change vs veh, RNGTT / RFU, OGT / Fold change vs veh, OGT / RFU, BRD1 / Fold change vs veh, BRD1 / RFU, MARS / Fold change vs veh, MARS / RFU, ZNF655 / Fold change vs veh, ZNF655 / RFU, FAHD1 / Fold change vs veh, FAHD1 / RFU, BDP1 / Fold change vs veh, BDP1 / RFU, LRRCC1 / Fold change vs veh, LRRCC1 / RFU, ARID1A / Fold change vs veh, ARID1A / RFU, ZNF146 / Fold change vs veh, ZNF146 / RFU, ZNF330 / Fold change vs veh, ZNF330 / RFU, GPN3 / Fold change vs veh, GPN3 / RFU, C9orf123 / Fold change vs veh, C9orf123 / RFU, N4BP2L2 / Fold change vs veh, N4BP2L2 / RFU, ARFIP1 / Fold change vs veh, ARFIP1 / RFU, FAM179B / Fold change vs veh, FAM179B / RFU, BCL10 / Fold change vs veh, BCL10 / RFU, UHRF1BP1L / Fold change vs veh, UHRF1BP1L / RFU, BET1 / Fold change vs veh, BET1 / RFU, CNOT2 / Fold change vs veh, CNOT2 / RFU, ZNF268 / Fold change vs veh, ZNF268 / Fold change vs veh, ZNF507 / RFU, DGCR2 / Fold change vs veh, DGCR2 / RFU, WDSUB1 / Fold change vs veh, WDSUB1 / Fold change vs veh, HSP90B1 /// MIR3652 / RFU, ADSS / Fold change vs veh, ADSS / RFU, GK / Fold change vs veh, GK / RFU, ZNF148 / Fold change vs veh, ZNF148 / RFU, TAF9 / Fold change vs veh, TAF9 / RFU, SLC1A5 / Fold change vs veh, SLC1A5 / RFU, SLMO2 / Fold change vs veh, SLMO2 / RFU, ABCC4 / Fold change vs veh, ABCC4 / RFU, LOC101060439 /// RAP1B / Fold change vs veh, LOC101060439 /// RAP1B / RFU, RFX7 / Fold change vs veh, RFX7 / RFU, GTPBP10 / Fold change vs veh, GTPBP10 / RFU, CNEP1R1 / Fold change vs veh, CNEP1R1 / RFU, BIVM-ERCC5 /// ERCC5 / Fold change vs veh, BIVM-ERCC5 /// ERCC5 / RFU, ILF3 / Fold change vs veh, ILF3 / RFU 11762660_at / Fold change /veh 11762660_at / RFU VCAN (11757783_s_at) / Fold change /veh VCAN (11757783_s_at) / RFU DDX43 (11728927_at) / Fold change /veh DDX43 (11728927_at) / RFU KRT8 (11758188_x_at) / Fold change /veh KRT8 (11758188_x_at) / RFU NKD1 (11759106_at) / Fold change /veh NKD1 (11759106_at) / RFU SRD5A1 (11742802_a_at) / Fold change /veh SRD5A1 (11742802_a_at) / RFU TPSAB1 /// TPSB2 (11721975_s_at) / Fold change /veh TPSAB1 /// TPSB2 (11721975_s_at) / RFU GSTM3 (11746129_a_at) / Fold change /veh GSTM3 (11746129_a_at) / RFU IL23R (11737362_x_at) / Fold change /veh IL23R (11737362_x_at) / RFU TMEM51 (11727254_a_at) / Fold change /veh TMEM51 (11727254_a_at) / RFU PIWIL2 (11732686_x_at) / Fold change /veh PIWIL2 (11732686_x_at) / RFU ORM1 (11744905_x_at) / Fold change /veh ORM1 (11744905_x_at) / RFU CCDC152 (11743942_at) / Fold change /veh CCDC152 (11743942_at) / RFU ECM1 (11717891_a_at) / Fold change /veh ECM1 (11717891_a_at) / RFU IL23R (11748794_a_at) / Fold change /veh IL23R (11748794_a_at) / RFU TNFAIP8L3 (11732012_x_at) / Fold change /veh TNFAIP8L3 (11732012_x_at) / RFU MBOAT4 (11741988_at) / Fold change /veh MBOAT4 (11741988_at) / RFU 11764193_at / Fold change /veh 11764193_at / RFU TMEM53 (11763286_at) / Fold change /veh TMEM53 (11763286_at) / RFU MAGEB2 (11727129_at) / Fold change /veh MAGEB2 (11727129_at) / RFU TMEM200A (11744735_a_at) / Fold change /veh TMEM200A (11744735_a_at) / RFU CCDC152 (11751479_a_at) / Fold change /veh CCDC152 (11751479_a_at) / RFU FAM211A (11726209_a_at) / Fold change /veh FAM211A (11726209_a_at) / RFU RGS16 (11746705_a_at) / Fold change /veh RGS16 (11746705_a_at) / RFU VCAN (11755009_s_at) / Fold change /veh VCAN (11755009_s_at) / RFU RHOB (11743442_s_at) / Fold change /veh RHOB (11743442_s_at) / RFU RGS16 (11720943_a_at) / Fold change /veh RGS16 (11720943_a_at) / RFU RGS16 (11720944_at) / Fold change /veh RGS16 (11720944_at) / RFU, VPS4B / Fold change vs veh, VPS4B / RFU, CREB1 / Fold change vs veh, CREB1 / RFU, DNAJC13 / Fold change vs veh, DNAJC13 / RFU, GNAQ / Fold change vs veh, GNAQ / RFU, CDK5R1 / Fold change vs veh, CDK5R1 / RFU, ZRANB3 / Fold change vs veh, ZRANB3 / RFU, CUL4A / Fold change vs veh, CUL4A / RFU, CCNY / Fold change vs veh, CCNY / RFU, UFL1 / Fold change vs veh, UFL1 / RFU, COG3 / Fold change vs veh, COG3 / RFU, DIAPH2 / Fold change vs veh, DIAPH2 / RFU, SKA2 / Fold change vs veh, SKA2 / RFU, AFF3 / Fold change vs veh, AFF3 / RFU, LMF1 / Fold change vs veh, LMF1 / RFU, IPO11 / Fold change vs veh, IPO11 / RFU, DFFB / Fold change vs veh, DFFB / RFU, FOXP1 / Fold change vs veh, FOXP1 / RFU, CARD8 / Fold change vs veh, CARD8 / RFU, STRN3 / Fold change vs veh, STRN3 / RFU, ADK / Fold change vs veh, ADK / RFU, RASSF2 / Fold change vs veh, RASSF2 / RFU, WIPF1 / Fold change vs veh, WIPF1 / RFU, LARP1B / Fold change vs veh, LARP1B / RFU, RASA1 / Fold change vs veh, RASA1 / RFU, RB1 / Fold change vs veh, RB1 / RFU, PPFIA1 / Fold change vs veh, PPFIA1 / RFU, MAT2A / Fold change vs veh, MAT2A / RFU, CCT5 / Fold change vs veh, CCT5 / RFU, WDR92 / Fold change vs veh, WDR92 / RFU, CUX1 / Fold change vs veh, CUX1 / RFU, TTC7A / Fold change vs veh, TTC7A / RFU, TMEM135 / Fold change vs veh, TMEM135 / RFU, DEPTOR / Fold change vs veh, DEPTOR / RFU, CPM / Fold change vs veh, CPM / RFU, DNAJB6 / Fold change vs veh, DNAJB6 / RFU, CACNA2D3 / Fold change vs veh, CACNA2D3 / RFU, DTX4 / Fold change vs veh, DTX4 / RFU, TFCP2 / Fold change vs veh, TFCP2 / RFU, GMCL1 /// GMCL1P1 / Fold change vs veh, GMCL1 /// GMCL1P1 / RFU, AEBP2 / Fold change vs veh, AEBP2 / RFU, SNHG1 /// SNORD22 /// SNORD25 /// SNORD26 /// SNORD27 /// SNORD28 /// SNORD29 /// SNORD31 / Fold change vs veh, SNHG1 /// SNORD22 /// SNORD25 /// SNORD26 /// SNORD27 /// SNORD28 /// SNORD29 /// SNORD31 / Fold change (Aza/veh), C12orf56 (ProbeSet 11735607_a_at) / Fold change (ACY-1035/veh), C12orf56 (ProbeSet 11735607_a_at) / Fold change (Aza/veh), FGFR1OP (ProbeSet 11751329_s_at) / Fold change (ACY-1035/veh), FGFR1OP (ProbeSet 11751329_s_at) / Fold change (Aza/veh), VPS36 (ProbeSet 11739960_a_at) / Fold change (ACY-1035/veh), VPS36 (ProbeSet 11739960_a_at) / RFU SYPL1 (11715823_x_at) / Fold change /veh SYPL1 (11715823_x_at) / RFU IGFBP7 (11715501_s_at) / Fold change /veh IGFBP7 (11715501_s_at) / RFU REEP3 (11722064_at) / Fold change /veh REEP3 (11722064_at) / RFU IGLL1 (11728026_x_at) / Fold change /veh IGLL1 (11728026_x_at): dose or concentration left out as unconfirmed
Settings: MV-4-11 cells, 48 hours

Compound: Nc1ccc(-c2cccs2)cc1NC(=O)c1ccc2c(c1)cc(C1CC1)n2CCN1CCOCC1 [ACY-1035]
- Fold change /veh JSRP1 (11732532_at): 0.91

— publication PMC5218480 (PLoS ONE, 2017)
